Data reported in patent publication US4018801A, “Substituted oxirane compounds” (The Dow Chemical Company, priority 1975, dated 1977).

Key:
Experiment in all cases: Pre-emergent control of seed germination, soil drench
Format in all cases: in vivo
Corn = conditions: Table IV
Source text: (§1) Four parts by weight of the compound, 0.08 part of sorbitan trioleate (Span 85), and 0.02 part of a sorbitan monooleate polyoxyethylene derivative (Tween 80) are dipersed in 40 milliliters of acetone to produce a concentrate composition in the form of a water-dispersible liquid containing the predetermined oxirane compound as the sole active agent.
(§2) A portion of each of these concentrate compositions were separately dispersed in portions of water to provide aqueous compositions, containing 0.44 pound of the oxirane compound per 100 gallons of ultimate aqueous mixture.
(§3) The aqueous compositions were then employed for the treatment of seed beds of good agricultural soil which had been prepared and seeded with the seeds of various grass species and broadleaf plants. The grass species included white winter wheat, cultured rice, pigweeds, crabgrass, cheat grass, wild oats, Johnson grass, barnyard grass and yellow foxtail; and the broadleaf plants included corn. In the treating operations, a predetermined quantity of each of the compositions was applied to separate seedbeds as a soil drench at a rate of about 0.43 acre inch of aqueous composition per acre. The quantities were controlled to supply a substantial uniform dosage in a seedbed equivalent to 1.0, 2.0 and 5.0 pounds of the oxirane compound per acre. These dosages correspond, respectively, to a concentration, within the soil depth penetrated of about 1.6, 3.2 and 8.0 parts by weight of the oxirane compound per million parts by weight of soil. Other seedbeds were similarly seeded with the named plant species but were left untreated to serve as checks.
After about 2 weeks the seedbeds were examined to ascertain what control of the growth of seeds had been obtained. […]
(§4) An aqueous composition containing 2-(α,α,α -trifluoro-m-tolyl)-2-(2,2,2-trichloroethyl)oxirane was prepared as described in Example 32. The composition was then employed according to the procedures of Example 32 except that lower concentrations of the oxirane compound were employed in the composition.
(§5) The percent control of the various plant species at the employed dosage rate of the 2-(α,α,α-trifluoro-m-tolyl)- 2-(2,2,2-trichloroethyl) supplied by the composition is set forth in the following Table IV.

Cotton = conditions: Table IV
Source text: as §1, §2, §3
(§6) After about 2 weeks the seedbeds were examined to ascertain what control of the growth of seeds had been obtained.
(§7) Separate aqueous compositions containing the 2-(m-chlorophenyl)-2-(2,2,2-trichloroethyl)oxirane (Cmpd. A) and 2-(m-bromophenyl)-2-(2,2,2-trichloroethyl)oxirane (Cmpd. C) compounds of the present invention were prepared as in Example 32 for comparative per-emergence herbicide tests against noxious grass species with the known 2 -(p-chlorophenyl)-2-(2,2,2-trichloroethyl)oxirane (Cmpd. B) compound and 2-(p-bromophenyl)-2-(2,2,2-trichloroethyl)oxirane (Cmpd. D). The pre-emergence tests were conducted in Example 32 and the results of such tests are set forth below in Table III.
as §4, §5

Soybeans = conditions: Table IV
Beans = conditions: Table IV
Source text: as §1, §2, §3, §6, §4, §5

Cultured Rice = conditions: Table IV
Source text: as §1, §2, §3, §6, §4, §5

White Winter Wheat = conditions: Table IV
Source text: as §1, §2, §3, §6, §4, §5

Johnson Grass = conditions: Table IV, Johnson Grass
Source text: as §1, §2, §3, §6
(§8) were prepared as in Example 32 and similarly employed for the pre-emergencetreatment of various plant species.
as §7, §4, §5

Crabgrass [1] = conditions: Table IV, Crabgrass
Source text: as §1, §2, §3, §6, §8, §7, §4, §5

Pigweeds = conditions: for Percent Pre-Emergent Control of Seed Germination: Table IV, Pigweeds
Source text: as §1, §2, §3, §6, §8, §4, §5

Yellow Foxtail = conditions: for Percent Pre-Emergent Control of Seed Germination: Table IV, Yellow Foxtail
Source text: as §1, §2, §3, §6, §8, §4, §5

Barnyard Grass = conditions: for Percent Pre-Emergent Control of Seed Germination: Table IV, Barnyard Grass
Source text: as §1, §2, §3, §6, §8, §4, §5

Wild Oats = conditions: for Percent Pre-Emergent Control of Seed Germination: Table IV, Wild Oats
Source text: as §1, §2, §3, §6, §8, §4, §5

Crabgrass [2] = conditions: 20 pounds per acre

## FC(F)(F)c1cccc(C2(CC(Cl)(Cl)Cl)CO2)c1 (stereo not drawn) [Example 4, 2-(α,α,α -trifluoro-m-tolyl)-2-(2,2,2-trichloroethyl)oxirane]
Corn; 0.03 pounds
  Percent Pre-Emergent Control of Seed Germination: 0%
Corn; 0.07 pounds
  Percent Pre-Emergent Control of Seed Germination: 0%
Corn; 0.13 pounds
  Percent Pre-Emergent Control of Seed Germination: 0%
Corn; 0.25 pounds
  Percent Pre-Emergent Control of Seed Germination: 90%
Corn; 0.5 pounds
  Percent Pre-Emergent Control of Seed Germination: 95%
Corn; 1.0 pounds
  Percent Pre-Emergent Control of Seed Germination: 95%
Cotton; 0.03 pounds
  Percent Pre-Emergent Control of Seed Germination: 0%
Cotton; 0.07 pounds
  Percent Pre-Emergent Control of Seed Germination: 0%
Cotton; 0.13 pounds
  Percent Pre-Emergent Control of Seed Germination: 0%
Cotton; 0.25 pounds
  Percent Pre-Emergent Control of Seed Germination: 0%
Cotton; 0.5 pounds
  Percent Pre-Emergent Control of Seed Germination: 30%
Cotton; 1.0 pounds
  Percent Pre-Emergent Control of Seed Germination: 20%
Soybeans; 0.03 pounds
  Percent Pre-Emergent Control of Seed Germination: 0%
Soybeans; 0.07 pounds
  Percent Pre-Emergent Control of Seed Germination: 0%
Soybeans; 0.13 pounds
  Percent Pre-Emergent Control of Seed Germination: 100%
Soybeans; 0.25 pounds
  Percent Pre-Emergent Control of Seed Germination: 40%
Soybeans; 0.5 pounds
  Percent Pre-Emergent Control of Seed Germination: 50%
Soybeans; 1.0 pounds
  Percent Pre-Emergent Control of Seed Germination: 60%
Beans; 0.03 pounds
  Percent Pre-Emergent Control of Seed Germination: 30%
Beans; 0.07 pounds
  Percent Pre-Emergent Control of Seed Germination: 30%
Beans; 0.13 pounds
  Percent Pre-Emergent Control of Seed Germination: 30%
Beans; 0.25 pounds
  Percent Pre-Emergent Control of Seed Germination: 60%
Beans; 0.5 pounds
  Percent Pre-Emergent Control of Seed Germination: 70%
Beans; 1.0 pounds
  Percent Pre-Emergent Control of Seed Germination: 95%
Cultured Rice; 0.03 pounds
  Percent Pre-Emergent Control of Seed Germination: 0%
Cultured Rice; 0.07 pounds
  Percent Pre-Emergent Control of Seed Germination: 30%
Cultured Rice; 0.13 pounds
  Percent Pre-Emergent Control of Seed Germination: 100%
Cultured Rice; 0.25 pounds
  Percent Pre-Emergent Control of Seed Germination: 100%
Cultured Rice; 0.5 pounds
  Percent Pre-Emergent Control of Seed Germination: 100%
Cultured Rice; 1.0 pounds
  Percent Pre-Emergent Control of Seed Germination: 100%
White Winter Wheat; 0.03 pounds
  Percent Pre-Emergent Control of Seed Germination: 0%
White Winter Wheat; 0.07 pounds
  Percent Pre-Emergent Control of Seed Germination: 50%
White Winter Wheat; 0.13 pounds
  Percent Pre-Emergent Control of Seed Germination: 100%
White Winter Wheat; 0.25 pounds
  Percent Pre-Emergent Control of Seed Germination: 100%
White Winter Wheat; 0.5 pounds
  Percent Pre-Emergent Control of Seed Germination: 100%
White Winter Wheat; 1.0 pounds
  Percent Pre-Emergent Control of Seed Germination: 100%
Johnson Grass; 0.03 pounds
  Percent Pre-Emergent Control of Seed Germination: 0%
Johnson Grass; 0.07 pounds
  Percent Pre-Emergent Control of Seed Germination: 80%
Johnson Grass; 0.13 pounds
  Percent Pre-Emergent Control of Seed Germination: 100%
Johnson Grass; 0.25 pounds
  Percent Pre-Emergent Control of Seed Germination: 100%
Johnson Grass; 0.5 pounds
  Percent Pre-Emergent Control of Seed Germination: 100%
Johnson Grass; 1.0 pounds
  Percent Pre-Emergent Control of Seed Germination: 100%
Crabgrass [1]; 0.03 pounds
  Percent Pre-Emergent Control of Seed Germination: 60%
Crabgrass [1]; 0.07 pounds
  Percent Pre-Emergent Control of Seed Germination: 75%
Crabgrass [1]; 0.13 pounds
  Percent Pre-Emergent Control of Seed Germination: 100%
Crabgrass [1]; 0.25 pounds
  Percent Pre-Emergent Control of Seed Germination: 100%
Crabgrass [1]; 0.5 pounds
  Percent Pre-Emergent Control of Seed Germination: 100%
Crabgrass [1]; 1.0 pounds
  Percent Pre-Emergent Control of Seed Germination: 100%
Pigweeds; 0.03 pounds
  Percent Pre-Emergent Control of Seed Germination: 0%
Pigweeds; 0.07 pounds
  Percent Pre-Emergent Control of Seed Germination: 30%
Pigweeds; 0.13 pounds
  Percent Pre-Emergent Control of Seed Germination: 50%
Pigweeds; 0.25 pounds
  Percent Pre-Emergent Control of Seed Germination: 100%
Pigweeds; 0.5 pounds
  Percent Pre-Emergent Control of Seed Germination: 100%
Pigweeds; 1.0 pounds
  Percent Pre-Emergent Control of Seed Germination: 100%
Yellow Foxtail; 0.03 pounds
  Percent Pre-Emergent Control of Seed Germination: 30%
Yellow Foxtail; 0.07 pounds
  Percent Pre-Emergent Control of Seed Germination: 0%
Yellow Foxtail; 0.13 pounds
  Percent Pre-Emergent Control of Seed Germination: 95%
Yellow Foxtail; 0.25 pounds
  Percent Pre-Emergent Control of Seed Germination: 100%
Yellow Foxtail; 0.5 pounds
  Percent Pre-Emergent Control of Seed Germination: 100%
Yellow Foxtail; 1.0 pounds
  Percent Pre-Emergent Control of Seed Germination: 100%
Barnyard Grass; 0.03 pounds
  Percent Pre-Emergent Control of Seed Germination: 50%
Barnyard Grass; 0.07 pounds
  Percent Pre-Emergent Control of Seed Germination: 95%
Barnyard Grass; 0.13 pounds
  Percent Pre-Emergent Control of Seed Germination: 95%
Barnyard Grass; 0.25 pounds
  Percent Pre-Emergent Control of Seed Germination: 95%
Barnyard Grass; 0.5 pounds
  Percent Pre-Emergent Control of Seed Germination: 95%
Barnyard Grass; 1.0 pounds
  Percent Pre-Emergent Control of Seed Germination: 95%
Wild Oats; 0.03 pounds
  Percent Pre-Emergent Control of Seed Germination: 30%
Wild Oats; 0.07 pounds
  Percent Pre-Emergent Control of Seed Germination: 85%
Wild Oats; 0.13 pounds
  Percent Pre-Emergent Control of Seed Germination: 95%
Wild Oats; 0.25 pounds
  Percent Pre-Emergent Control of Seed Germination: 95%
Wild Oats; 0.5 pounds
  Percent Pre-Emergent Control of Seed Germination: 95%
Wild Oats; 1.0 pounds
  Percent Pre-Emergent Control of Seed Germination: 95%

## ClC(Cl)(Cl)CC1(c2cccc(OCc3ccccc3)c2)CO1 (centres unmarked) [Example 16, 2-(m-(benzyloxy)phenyl)-2-(2,2,2-trichloroethyl)oxirane]
Crabgrass [2]
  pre-emergence control: substantially complete control
Pigweeds; pigweed, 20 pounds per acre
  pre-emergence control: substantially complete control
Yellow Foxtail; yellow foxtail, 20 pounds per acre
  pre-emergence control: substantially complete control
Barnyard Grass; barnyard grass, 20 pounds per acre
  pre-emergence control: substantially complete control
Wild Oats; wild oats, 20 pounds per acre
  pre-emergence control: substantially complete control
